Assay results published in ChEMBL document CHEMBL3301546, “MMV Malaria Box yeast growth screening”.

Tests used:
Type in all cases: functional
[1] = tested on: Saccharomyces cerevisiae; test: MMV: Growth assays were conducted using the prototrophic S. cerevisiae strain JHY222. Each MMV compound (0.1 mM) was tested in minimal media containing ethanol and glycerol as carbon sources (Yeast Nitrogen Base, Ethanol, Glycerol; YNBEG). The growth rate in the presence of each MMV compound was calculated as follows: (i) the first 10 OD readings were averaged and subtracted from all OD readings of the corresponding curve to set the baseline of the growth curve to zero, and (ii) the area under the curve (AUC) was then calculated as the sum of all OD readings. […] A relative growth value was calculated as follows: AUC(DRUG) - AUC(DMSO)/AUC(DMSO); where AUC(DMSO) represents growth measured in a DMSO control well that was on the same microtiter plate of the drug-treated culture.
[2] = tested on: Saccharomyces cerevisiae; test: (§1) MMV: Growth assays were conducted using the prototrophic S. cerevisiae strain JHY222. Each MMV compound (0.1 mM) was tested in rich media containing dextrose as a carbon source (Yeast Extract, Peptone, Dextrose; YPD). The growth rate in the presence of each MMV compound was calculated as follows: (i) the first 10 OD readings were averaged and subtracted from all OD readings of the corresponding curve to set the baseline of the growth curve to zero, and (ii) the area under the curve (AUC) was then calculated as the sum of all OD readings. […] A relative growth value was calculated as follows: AUC(DRUG) - AUC(DMSO)/AUC(DMSO); where AUC(DMSO) represents growth measured in a DMSO control well that was on the same microtiter plate of the drug-treated culture.
[3] = tested on: Saccharomyces cerevisiae; test: as §1, with “minimal” for “rich”, “Nitrogen Base,” for “Extract, Peptone,”, “YNBD).” for “YPD).”

Row | SMILES | Relative Growth [1] | Relative Growth [2] | Relative Growth [3]
1 | COc1cccc(Cn2c(Oc3ccccc3)nc3c2c(=O)n(C)c(=O)n3C)c1 | -0.4904 | -0.0536 | -0.1115
2 | CCn1nc(-c2ccc(C(=O)OC)cc2)nc2c(=O)n(C)c(=O)nc1-2 | 0.1078 | 0.0103 | 0.0968
3 | CCOc1ccccc1CN1CCc2nc3cc(C(C)(C)C)nn3c(O)c2C1 | -0.4424 | -0.6117 | -0.2912
4 | Cc1cc(NC(=O)c2cccc(C(F)(F)F)c2)n(-c2nc(-c3ccc4c(c3)OCO4)cs2)n1 | -0.0763 | -0.007 | -0.0865
5 | CN1CCN(c2ncnc3c2[nH]c2ccc(Cl)cc23)CC1 | 0.0216 | 0.0011 | 0.0494
6 | CC1(c2ccccc2)Nc2ccccc2-c2nc3ccccc3n21 (stereo unspecified) | -0.5975 | -0.9988 | -0.2999
7 | COc1cccc(C2(C)Nc3ccccc3-c3nc4ccccc4n32)c1 (stereo unspecified) | -0.0556 | 0.098 | -0.0211
8 | CC(C)CNC(=O)c1c(N)n(CCc2ccccc2F)c2nc3ccccc3nc12 | -0.2111 | 0.0072 | 0.1192
9 | CC(C)(C)CC(C)(C)NCC(O)COc1ccc(Cl)cc1Cl (stereo unspecified) | -0.1363 | -0.1373 | 0.0104
10 | Cc1cccc(-n2ncc3c(O)nc(-n4nc(C)cc4NC(=O)c4cc5ccccc5o4)nc32)c1 | -0.0822 | -0.0284 | -0.2202
11 | O=C(Nc1ccc(Br)cc1)Nc1cccc(Cl)c1 | -0.1301 | -1.0018 | -0.1739
12 | COc1cccc(O)c1CN1CCC2(CCCN(Cc3ccc(F)cc3)C2)C1 (stereo unspecified) | 0.0078 | 0.0333 | 0.0312
13 | COc1cccc(Nc2nc(NCCO)c3ccccc3n2)c1.Cl | -0.0151 | 0.0163 | -0.0288
14 | COc1ccc2nc(C)cc(Nc3ccc(Cl)cc3)c2c1 | -0.1037 | -0.0836 | 0.0064
15 | O=C(NC1CCN(Cc2ccccc2)CC1)c1cc(-c2ccncc2)nc2ccc(Cl)cc12 | -0.2602 | -0.0217 | 0.1716
16 | COc1ccc2nc(C)cc(Nc3cccc(O)c3)c2c1.Cl | 0.0008 | -0.0539 | 0.0539
17 | COc1cc2cc(C(=O)Nc3ccccc3)c(N)nc2cc1OC | 0.0392 | -1.0109 | -0.0986
18 | CN(C)CCCNCc1ccc(-c2ccc(F)c(Cl)c2)o1.Cl | 0.0645 | -0.0396 | 0.0576
19 | COc1ccc2nc(N)nc(C)c2c1 | -0.0106 | -0.0479 | 0.0302

Row | SMILES | Relative Growth [1] | Relative Growth [2] | Relative Growth [3]
20 | O=C(NC(c1ccccc1)c1ccc2cccnc2c1O)c1ccccc1 (stereo unspecified) | -0.2626 | 0.0169 | -0.0745
21 | CCC(=O)Nc1nnc(Cc2ccc(OC)c(OC)c2)s1 | -0.1225 | -0.0143 | -0.019
22 | CC(=O)Nc1nnc(SCc2c(C)cc(C(C)(C)C)cc2C)s1 | 0.0163 | 0.0168 | 0.0621
23 | O=C(Nc1ccc(CN2CCOCC2)cc1)c1ccc(-c2cc(Cl)ccc2Cl)o1 | -0.173 | 0.0021 | 0.0214
24 | CN1CCN(c2c3c(c(C#N)c4nc5ccccc5n24)CCC3)CC1 | -0.4878 | -0.0644 | 0.2469
25 | Oc1ccc(Cl)cc1CNc1nc2ccccc2[nH]1 | -0.0134 | -0.0141 | -0.0661
26 | COc1cccc(C(=O)Nc2ccc(-c3nc4ccccc4[nH]3)cc2)c1 | 0.0109 | -0.0256 | 0.0184
27 | COCCn1c(C)nc2ccccc2c1=O | -0.2443 | -0.0038 | 0.0485
28 | O=C(Nc1cccc(-c2nc3ccccc3[nH]2)c1)c1cccc(NC(=O)c2ccco2)c1 | -0.4658 | -0.1741 | -0.0641
29 | O=C(NC1CCN(Cc2ccccc2)CC1)c1cc(-c2cccnc2)nc2ccc(Cl)cc12 | 0.017 | -0.0203 | 0.0617
30 | COc1nc(Nc2ccc(C(C)C)cc2)nc(OC)n1 | 0.0254 | -0.007 | 0.0529
31 | CCN(CC)CCNc1ncnc2c1[nH]c1ccc(Br)cc12 | 0.0355 | -0.0425 | 0.101
32 | CCOc1cccc(C(=O)Nc2ccc(-c3nc4ccccc4[nH]3)cc2)c1 | 0.032 | -0.0469 | 0.0858
33 | Cc1cc(NC(=O)c2ccc(-c3ccccc3)cc2)no1 | 0.0052 | -0.0826 | 0.0468
34 | O=C(Nc1ccc(N2CCN(Cc3ccccc3)CC2)cc1)c1cccs1.O=C(O)C(F)(F)F | -0.0052 | -0.129 | -0.0637
35 | O=C(Nc1ccc(N2CCCCC2)c(Cl)c1)c1ccc(Br)o1 | -0.1511 | -0.0318 | -0.1788
36 | CCOc1cc2c(cc1OCC)C(c1cc(C)c(O)c(C)c1)NCC2.Cl (stereo unspecified) | -0.7495 | -0.1843 | -0.1636
37 | O=C1CC(O)(C(F)(F)C(F)(F)F)Oc2ccccc21 (stereo unspecified) | -0.6809 | -0.0644 | -0.042
38 | O=C(Nc1cccc(C(F)(F)F)c1)c1cc(Cl)ccc1O | -1.011 | -0.651 | -1.0097

Row | SMILES | Relative Growth [1] | Relative Growth [2] | Relative Growth [3]
39 | CC1CC(C)CN(C(=O)c2ccc(Cl)cc2Cl)C1 (stereo unspecified) | -0.0083 | 0.0159 | -0.0098
40 | OC(CNC1CCCC1)Cn1c2ccccc2c2ccccc21 (stereo unspecified) | -0.0741 | -0.0524 | -0.142
41 | Cc1ccc(NC(=O)Nc2cccc(Cl)c2)cc1F | 0.0189 | -0.0033 | 0.0155
42 | CCOc1ccc(/C=C/c2nc(=O)c3ccccc3o2)cc1 | 0.0498 | 0.0045 | 0.0067
43 | O=C(Nc1ccccc1O)c1ccc(-c2ccc(Cl)cc2Cl)o1 | -0.098 | 0.0802 | 0.0136
44 | O=C(NCc1ccco1)C1CCN(S(=O)(=O)c2ccc(Br)cc2)CC1 | -0.2359 | -0.1145 | -0.0814
45 | Clc1ccc2[nH]c3c(NCCCN4CCOCC4)ncnc3c2c1 | -0.0516 | 0.0234 | -0.0328
46 | Oc1c(CN2CCN(c3ccccc3F)CC2)cc(Br)c2cccnc12 | 0.0379 | -0.0397 | 0.0189
47 | CCCCc1c(C)nc2c(OC)cccc2c1O | 0.0348 | -0.0392 | -0.0292
48 | CCOC(=O)C1CCN(C(=O)CN2C(=O)c3ccccc3C2c2c[nH]c3ccccc23)CC1 (stereo unspecified) | -0.5143 | -1.0024 | -0.2514
49 | CCCN(CCC)CCCNC(=O)c1cc2c(-c3ccc(OC)c(OC)c3)nn(C)c2s1 | -0.061 | -0.0057 | -0.0982
50 | Cc1cc(N2CCN(C3CCCC3)CC2)n2c(nc3ccccc32)c1C#N | -0.0829 | -0.0263 | 0.1152
51 | O=c1c2c([nH]c3ccccc13)CCCC2 | -0.326 | -0.0433 | -0.018
52 | CCCCOc1ccc(C(=O)Nc2cc(C)on2)cc1 | -0.1988 | -0.0346 | -0.0653
53 | CC1CCCCN1CCCNC(=O)c1ccc2c(c1)sc1nc(-c3ccc(F)cc3)cn12 (stereo unspecified) | -0.161 | 0.083 | 0.1056
54 | CCc1ccc(Nc2cc(C)nc3nc(C)nn23)cc1 | -0.0737 | 0.0328 | -0.1477
55 | Br.CCN(CC)S(=O)(=O)c1ccc(-c2csc(Nc3ccc(C)c(C)c3)n2)cc1 | -0.6715 | -0.1037 | 0.0785
56 | Cc1c(C)n(CC(O)CNC2CCCCC2C)c2ccccc12 (stereo unspecified) | -0.2246 | -0.0794 | -0.0308
57 | CCCCN(CCCC)S(=O)(=O)c1ccc(NC(=O)c2ccco2)cc1 | -0.9939 | -0.9715 | -0.9663
